Reference: patent publication US10253004B2, “Indanylaminopyrazinylcyclopropanecarboxylic acids, pharmaceutical compositions and uses thereof” (Boehringer Ingelheim International GmbH, priority 2017, dated 2019)
Values after ≈ are worked out from the molar mass of the structure shown. Like-named read-outs stand apart in the source and are kept apart here.

Legend:
human GPR40 receptor = human GPR40 receptor (Homo sapiens (Human), UniProt O14842); assay: IP1 accumulation measurements using the IPOne assay system; type: cell-based
human GPR40 receptor, sequence (O14842 whole entry): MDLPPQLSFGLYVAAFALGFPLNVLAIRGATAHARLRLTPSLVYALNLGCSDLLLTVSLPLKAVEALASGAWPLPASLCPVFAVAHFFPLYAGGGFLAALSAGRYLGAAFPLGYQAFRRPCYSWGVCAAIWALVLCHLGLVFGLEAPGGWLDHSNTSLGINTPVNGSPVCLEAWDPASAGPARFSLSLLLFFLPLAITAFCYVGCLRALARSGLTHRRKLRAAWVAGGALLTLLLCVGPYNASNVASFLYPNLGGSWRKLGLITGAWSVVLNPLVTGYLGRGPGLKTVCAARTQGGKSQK
Description: IP1 accumulation measurements using the IPOne assay system—1321N1 cells stably expressing human GPR40 receptor (Euroscreen, Belgium) are seeded 24 h before the assay in white 384-well plates in culture medium containing 10% FCS, 1% Na-Pyruvate and 400 μg/mL G418. IP1 is assayed according to the manufacturer's description (Cisbio Bioassays, France). In brief, the assay is started by substitution of the culture medium by stimulation buffer (Hepes 10 mM, CaCl2 1 mM, MgCl2 0.5 mM, KCl 4.2 mM, NaCl 146 mM, glucose 5.5 mM and LiCl 50 mM, pH 7.4). Cells are stimulated for 1 h at 37° C., 5% CO2 by addition of the compounds that are diluted in stimulation buffer containing LiCl. Assays are stopped by adding HTRF-conjugates (IP1-d2 and Anti-IP1 cryptate Tb) and lysis buffer, provided by the manufacturer. After an incubation time of 1 h at room temperature plates are measured using an EnVision™, Perkin Elmer. The obtained fluorescence ratios at 665/615 […] are then used to calculate the pEC50 values using Assay Explorer 3.3 Software (Accelrys, Inc.) by interpolation using an IP1 reference curve and subsequent sigmoidal curve fitting allowing for a variable hill slope.

[1] = biological target: cytochrome P450 2C8-isoenzyme (Homo sapiens (Human), UniProt P10632); assay: Inhibition of CYP-2C8 (amodiaquine deethylation, human liver microsomes); type: in vitro ADME; conditions: amodiaquine 1 μM, 37° C.
cytochrome P450 2C8-isoenzyme, sequence (P10632 whole entry): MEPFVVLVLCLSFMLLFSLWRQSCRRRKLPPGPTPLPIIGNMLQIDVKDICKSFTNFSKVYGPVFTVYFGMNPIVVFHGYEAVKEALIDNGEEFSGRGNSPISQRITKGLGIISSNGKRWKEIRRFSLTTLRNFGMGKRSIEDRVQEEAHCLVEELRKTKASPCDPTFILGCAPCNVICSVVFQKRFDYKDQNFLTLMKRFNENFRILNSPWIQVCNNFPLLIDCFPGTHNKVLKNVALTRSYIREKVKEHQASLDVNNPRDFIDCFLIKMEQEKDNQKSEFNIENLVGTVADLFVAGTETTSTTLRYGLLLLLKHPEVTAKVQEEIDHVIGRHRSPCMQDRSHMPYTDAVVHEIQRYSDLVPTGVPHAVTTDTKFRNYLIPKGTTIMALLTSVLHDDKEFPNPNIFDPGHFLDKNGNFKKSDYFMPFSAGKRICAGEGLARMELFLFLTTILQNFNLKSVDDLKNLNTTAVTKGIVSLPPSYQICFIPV
Description: (§1) All assays are carried out on a robotic system in 96 well plates. The final incubation volume contains TRIS buffer (0.1 M), MgCl2 (5 mM), human liver microsomes (0.05 mg/mL), amodiaquine (1 μM) and the test compound at five different concentrations or no compound (high control) in duplicate (e.g. highest concentration 10-50 μM with subsequent serial 1:4 dilutions). Following a short preincubation period, reactions are started with the cofactor (NADPH, 1 mM) and stopped by cooling the incubation down to 8° C. and subsequently by addition of one volume of acetonitrile. An internal standard solution—the stable isotope d5-desethylamodiaquine—is added after quenching of incubations. Peak area analyte (=metabolite formed) and internal standard is determined by LC-MS/MS. The resulting peak area ratio analyte to internal standard in these incubations is compared to a control activity containing no test compound. Within each of the assay runs, the IC50 of a positive control inhibitor (Montelukast) is determined.

[2] = Chemical stability (degradation kinetics) in acidic aqueous media, HPLC recovery; type: physicochemical; conditions: for Amount of degradation after 2 h: pH ca. 1.2, 37° C., acetonitrile/0.1 M aqueous HCl (2:3); for Chemical stability at pH ca. 1.2: degradation after 2 h at 37° C.: pH ca. 1.2, 2 h
Description: Degradation kinetics is used to simulate chemical stability of compounds in the acidic part of the gastro intestinal tract. […] Their application as medical drugs to treat human diseases is therefore less restricted and troublesome.
The chemical stability of the compounds of the invention at pH value of ca. 1.2 is determined as follows:
Compound is dissolved in an HPLC vial either in a mixture of acetonitrile/0.1 M aqueous HCl (2:3; pH ca. 1.2) or in a mixture of acetonitrile/Mcllvaine buffer pH 7.4 (2:3) to get a concentration of approximately 0.25 mg/ml. The vial was then transferred into an HPLC autosampler system and maintained at a temperature of 37° C. A first sample is taken and injected immediately into a standard HPLC system with a UV DAD detector. Further samples are injected after 2, 4, 6, 8 and 10 hours. Amount of degraded compound is measured by determining the recovery rate of compound [%] for each injection using an HPLC standard gradient method. Therefore the peak area of the main peak for the first injection (AUt0) is determined and set as 100%. Peak area of the main peak is determined also for the further injections (AUtn, n=2, 4, 6, 8, 10) and expressed as fraction of […] [%].

[3] = Aqueous solubility in buffer vs acetonitrile/water, LC-UV; type: physicochemical; conditions: kinetic from dmso stock, pH 6.8 buffer, 24 h shaking, 2.5% DMSO
Description: The aqueous solubility of the compounds of the invention is determined by comparing the amount dissolved in buffer to the amount in an acetonitrile/water (1/1) solution. Starting from a 10 mM DMSO stock solution aliquots are diluted with acetonitrile/water (1/1) or buffer, respectively. After 24 h of shaking, the solutions are filtrated and analyzed by LC-UV. The amount dissolved in buffer is compared to the amount in the acetonitrile solution.
Solubility is usually being measured from 0.001 to 0.125 mg/mL at a DMSO concentration of 2.5%. If more than 90% of the compound is dissolved in buffer, the value is marked with “>”.

[4] = biological target: cytochrome P450 2C9-isoenzyme (Homo sapiens (Human), UniProt P11712); assay: Inhibition of CYP-2C9 (diclofenac hydroxylation, human liver microsomes); type: in vitro ADME; conditions: diclofenac 10 μM, 37° C.
cytochrome P450 2C9-isoenzyme, sequence (P11712 whole entry): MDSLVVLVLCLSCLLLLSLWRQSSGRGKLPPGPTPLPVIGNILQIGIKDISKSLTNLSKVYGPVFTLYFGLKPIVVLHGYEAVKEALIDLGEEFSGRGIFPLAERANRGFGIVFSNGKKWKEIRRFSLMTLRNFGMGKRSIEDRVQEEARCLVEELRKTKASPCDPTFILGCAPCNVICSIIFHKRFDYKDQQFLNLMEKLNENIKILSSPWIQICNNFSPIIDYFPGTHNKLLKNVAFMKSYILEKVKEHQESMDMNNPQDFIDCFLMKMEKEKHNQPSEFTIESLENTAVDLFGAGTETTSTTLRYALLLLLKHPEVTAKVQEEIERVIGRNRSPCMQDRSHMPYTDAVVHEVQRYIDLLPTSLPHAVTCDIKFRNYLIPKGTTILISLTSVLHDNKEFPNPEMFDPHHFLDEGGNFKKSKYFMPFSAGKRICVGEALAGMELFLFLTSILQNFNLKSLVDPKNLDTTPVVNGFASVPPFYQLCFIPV
Description: as §1, with “(0.1” for “(0.05”, “diclofenac (10” for “amodiaquine (1”, “(e.g.,” for “(e.g.”, “^13C6-hydroxydiclofenac—is” for “d5-desethylamodiaquine—is”, “(sulfaphenazole)” for “(Montelukast)”

[5] = 1321N1 cells stably expressing human GPR40, IP1 accumulation, read-out: EC50
[6] = given as IC50, own-compound values equal the EC50 of Table 2, read-out: GPR40: IC50

Work on `Cc1cc(OCCC(C)(C)O)cc(C)c1-c1ccc(F)c2c1CC[C@H]2Nc1cnc([C@H]2C[C@@H]2C(=O)O)cn1` [Example 2, (1S,2S)-2-(5-{(R)-7-Fluoro-4-[4-(3-hydroxy-3-methyl-butoxy)-2,6-dimethyl-phenyl]-indan-1-ylamino}-pyrazin-2-yl)-cyclopropanecarboxylic acid] yielded an EC50 (human GPR40 receptor; [5]) of 4 nM, an EC50 (human GPR40 receptor; [6]) of 4 nM and an IC50 [1] greater than 50000 nM. The “Amount of degradation after 2 h” value [2] was less than 0.5%, the “Chemical stability at pH ca. 1.2: degradation after 2 h at 37° C.” value (from here on “Chemical stability”) [2] was less than 0.5% and the solubility at 24 h ([3]; buffer pH 6.8, aqueous buffer) was 87 µg/mL (≈ 167 µM). It also gave an IC50 [4] greater than 50000 nM.
With `Cc1cc(OCCCS(C)(=O)=O)cc(C)c1-c1ccc(F)c2c1CC[C@H]2Nc1cnc([C@H]2C[C@@H]2C(=O)O)cn1` [Example 4, (1S,2S)-2-(5-{(R)-7-Fluoro-4-[4-(3-methanesulfonyl-propoxy)-2,6-dimethyl-phenyl]-indan-1-ylamino}-pyrazin-2-yl)-cyclopropanecarboxylic acid] the EC50 (human GPR40 receptor; [5]) was 8 nM, the EC50 (human GPR40 receptor; [6]) was 8 nM and the IC50 [1] was greater than 50000 nM. The “Amount of degradation after 2 h” value [2] was less than 0.5%, the “Chemical stability” value [2] was less than 0.5% and the solubility at 24 h ([3]; buffer pH 6.8, aqueous buffer) was 92 µg/mL (≈ 166 µM). The IC50 [4] was greater than 50000 nM.
With `Cc1cc(OCCC(C)(C)O)cc(C)c1-c1cccc2c1CC[C@H]2Nc1cnc([C@H]2C[C@@H]2C(=O)O)cn1` [Example 7, (1S,2S)-2-(5-{(R)-4-[4-(3-Hydroxy-3-methyl-butoxy)-2,6-dimethyl-phenyl]-indan-1-ylamino}-pyrazin-2-yl)-cyclopropanecarboxylic acid] the EC50 (human GPR40 receptor; [5]) was 4 nM and the “Amount of degradation after 2 h” value [2] was less than 1%.
For `Cc1cc(OCCCS(C)(=O)=O)cc(C)c1-c1ccc(F)c2c1CC[C@H]2Oc1ccc([C@H]2C[C@@H]2C(=O)O)cc1` [Example 11 in WO 2013/178575, reference compound], the EC50 (human GPR40 receptor; [6]) was 8 nM, the IC50 [1] was 12000 nM and the “Amount of degradation after 2 h” value [2] was 5%. For the same molecule, the “Chemical stability” value [2] was 5% and the IC50 [4] was 17000 nM.
In the case of `Cc1cc(OCCC(C)(C)O)cc(C)c1-c1ccc(F)c2c1CC[C@H]2Oc1ccc([C@H]2C[C@@H]2C(=O)O)cc1` [Example 17 in WO 2013/178575, reference compound], the “Amount of degradation after 2 h” value [2] is reported as 8%, the “Chemical stability” value [2] is reported as 8% and the solubility at 24 h ([3]; buffer pH 6.8, aqueous buffer) is reported as less than 1 µg/mL.
For `Cc1cccc(C)c1-c1ccc(F)c2c1CC[C@H]2Oc1ccc(C2CC2C(=O)O)cc1` (stereo partly drawn) [Example 33 in WO 2013/178575, reference compound], the “Amount of degradation after 2 h” value [2] was 8%.
In the case of `Cc1cc(-c2nnn(C)n2)cc(C)c1-c1ccc(F)c2c1CC[C@H]2Nc1cnc([C@H]2C[C@@H]2C(=O)O)cn1` [Example 35], the EC50 (human GPR40 receptor; [6]) is reported as 2 nM, the IC50 [1] is reported as 21000 nM and the “Amount of degradation after 2 h” value [2] is reported as less than 1%. For the same molecule, the “Chemical stability” value [2] was less than 1%, the solubility at 24 h ([3]; aqueous buffer) was 34 µg/mL (≈ 68.1 µM) and the IC50 [4] was 32000 nM.
`Cc1cc(-c2nnn(C)n2)cc(C)c1-c1ccc(F)c2c1CC[C@H]2Oc1ccc([C@H]2C[C@@H]2C(=O)O)cc1` [Example 45 in WO 2013/178575, reference compound] gave a solubility at 24 h ([3]; buffer pH 6.8, aqueous buffer) of less than 1 µg/mL.
With `Cc1c(C#N)cccc1-c1ccc(F)c2c1CC[C@H]2Oc1ccc([C@H]2C[C@@H]2C(=O)O)cc1` [Example 54 in WO 2013/178575, reference compound] the “Amount of degradation after 2 h” value [2] was 2.5%^.
